Measurements published in patent US8841132B2, “Method for detecting compounds containing sulfenic acid using a 1,3-cyclohexanedione-based probe” (Wake Forest University Health Sciences, priority 2004, dated 2014).

How the values were obtained:
[1] = molecular target: T1, sulfenic acid form of C165S AhpC (Salmonella typhimurium, UniProt P0A251, C166S); assay: Labeling of sulfenic acid-containing C165S AhpC, adducts analysed by ESI-MS; format: biochemical; settings: for Observed increase in mass of product compared with R—SH form / covalent adduct formation with the sulfenic acid form of the peroxidase: ESI-MS, 5 mM reagent; for Observed increase in mass of product compared with R—SH form: 60 min, room temperature; for covalent adduct formation with the sulfenic acid form of the peroxidase: aqueous neutral pH buffer; for labeling of the protein when 1:1 mixtures of 6 and 7 are added: ESI-MS of intact proteins
T1 construct: made in house
T1 sequence (P0A251 whole entry C166S): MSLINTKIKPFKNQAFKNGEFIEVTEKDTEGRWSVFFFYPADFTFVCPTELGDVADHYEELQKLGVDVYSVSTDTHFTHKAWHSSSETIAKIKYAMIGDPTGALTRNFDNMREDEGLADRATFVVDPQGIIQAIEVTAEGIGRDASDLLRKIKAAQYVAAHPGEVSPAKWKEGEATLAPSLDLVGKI
Procedure: (§1) Reactivity of new compounds toward cysteine sulfenic acids in proteins. To test for the reactivity of 6 and 7 toward protein sulfenic acids, a mutant, cysteine-dependent peroxidase enzyme was used in which the oxidized, sulfenic acid form of the cysteinyl redox center is stabilized, yet accessible (the C165S mutant of AhpC from Salmonella typhimurium, a peroxiredoxin) (3, 9, 14).
[drawing 11] washed proteins following incubations with the labeling agents (FIG. 1 and data not shown). As illustrated in FIG. 1 and summarized in Table 1, mass spectrometry results were completely consistent with the expected reactivity and products generated with the sulfenic acid-containing protein using dimedone, 1,3-cyclohexadione and our two new labeling agents (6 and 7). […] Under the conditions used, the sulfenic acid form of the protein either reacts with the reagent or is further oxidized during the workup or analysis of the sample, and is therefore not observed. In a subsequent experiment
Generation of pure, sulfenic acid-containing C165S AhpC. The C165S mutant of AhpC was expressed in bacteria and purified in the presence of 5 mM 1,4-dithiothreitol (added to all buffers) essentially as described previously (9). Purification of wild type AhpC was also carried out as previously described (10). For generation of the sulfenic acid form of C165S AhpC, thawed enzyme in 25 mM phosphate buffer at pH 7, containing 1 mM EDTA, was washed free of the dithiothreitol and transferred into fresh buffer using a PD-10 column (Amersham Biosciences), and pooled fractions were transferred to an anerobic cuvette. The protein solution (160 nmol in 0.60 mL) was made anaerobic by repeated cycles of argon and vacuum over about 30 min, then rapidly titrated with 11 mM hydrogen peroxide to give a maximal absorbance signal at ˜367 nm for the sulfenate anion as described previously (3, 4). In subsequent experiments, optimal sulfenic acid formation was observed by adding and mixing the hydrogen peroxide much more slowly (additions of about 0.05 eq and thorough mixing every ˜1 min) and quantitating the sulfenic acid formed using a freshly-prepared 2-nitro-5-thiobenzoate (TNB) solution (0.28 mL) and a 60 μL aliquot of the protein removed anaerobically from the cuvette (3, 4). Using this method, ˜73% of the protein was converted to the sulfenic acid form after addition of 1.08 eq of hydrogen peroxide. Protein was kept in the anaerobic cuvette at room temperature for several hours before conducting experiments with no loss in sulfenic acid content.
(§2) Labeling of sulfenic acid-containing C165S AhpC for spectral and mass spectrometric analysis. The pure, oxidized enzyme (32 μL, 6 nmol each) from the anaerobic cuvette was added to argon-flushed 500 μL Eppendorf tubes containing the compound of choice (either dimethylsulfoxide alone, or dimethylsulfoxide into which dimedone, 1,3-cyclohexanedione, 6 or 7 had been dissolved) to give a final concentration of 5 mM for the added reagent in final volumes of 50 μL, and the tubes were flushed again with argon before closing. Other redox forms of C165S AhpC or the wild-type enzyme were also tested for reactivity with one or more of these four compounds. Approximate 100 mM stock solutions of 6 or 7 in dimethylsulfoxide were standardized using expected extinction coefficients of 5,700 or 25,000 M^−1 cm^−1, respectively, for the esterified isatoic acid conjugate or the methoxycoumarin conjugate in methanol (11). Samples were incubated at room temperature for 60 min, then transferred to Apollo ultrafiltration devices (30K cutoff, Orbital Biosciences, Topsfield, Mass.), washed with 5.5 mL 10 mM ammonium bicarbonate and reconcentrated to about 50 μL, for a total of four washes (>10^8-fold dilution of the initial small molecule components).
Mass spectrometric and spectral analyses of adducts with the sulfenic acid-containing form of C165S AhpC. […]

[2] = system: thiol, disulfide or hyperoxidized forms of AhpC (wild type or C165S); assay: Control reactions with other redox forms of AhpC (ESI-MS adduct detection); format: biochemical, Salmonella typhimurium; settings: for reaction with protein amine groups: reduced or oxidized wild type or reduced C165S AhpC; for reactivity of thiol, disulfide or hyperoxidized forms of AhpC (ESI-MS-detectable adduct formation): wild type or C165S
Text: as §1
The thiol group of the reduced protein and the oxidized, disulfide-bonded form of wild type AhpC were also unreactive toward these compounds, as confirmed by electrospray ionization mass spectrometry (ESI-MS) of the ammonium bicarbonate-washed
(§3) Specificity of fluorescent, cyclohexadione-derived regents toward sulfenic acids in proteins. The known reactivity of the nucleophilic center of dimedone is toward cysteine sulfenic acids and aldehydes (15, 16). […] To test for general cross-reactivity of these reagents with other oxidized sulfur-containing functional groups, we tested the reactivity of dimedone, as a model reagent, with a S-nitrosothiol and two sulfoxides.
as §2

[3] = cited from earlier work
[4] = Cross-reactivity with S-nitrosothiol (absorbance spectroscopy); settings: one hour, room temperature
Text: as §3

[5] = Cross-reactivity with sulfoxide (NMR, spectroscopic and chemical isolation); settings: aqueous solution
Text: as §3

[6] = Control reaction with aldehyde
[7] = Control reaction with amine

| Compound | reactivity toward cysteine sulfenic acids relative to dimedone [1] | Observed increase in mass of product compared with R—SH form [1] [amu] | reaction with protein amine groups [2] | reactivity of thiol, disulfide or hyperoxidized forms of AhpC (ESI-MS-detectable adduct formation) [2] | covalent adduct formation with the sulfenic acid form of the peroxidase [1] | labeling of the protein when 1:1 mixtures of 6 and 7 are added [1] | pka of active methylene group [3] | reaction with S-nitrosoglutathione [4] | reaction with dimethyl sulfoxide [5] | reaction with methionine sulfoxide [5] | reaction with butyraldehyde ([6]; in the presence of piperidine, 50° C., aqueous ethanol) | reaction with butyraldehyde ([6]; room temperature, absence of base) | reaction with benzylamine ([7]; aqueous ethanol) | reaction with benzylamine ([7]; organic solvent) |
| --- | --- | --- | --- | --- | --- | --- | --- | --- | --- | --- | --- | --- | --- | --- |
| O=C1CCCC(=O)C1 [1,3-cyclohexadione, 1,3-cyclohexanedione] | at least equivalent reactivity | 109.2 | – | – | – | – | – | – | – | – | – | – | – | – |
| CNc1ccccc1C(=O)OCCCC1CCC(=O)CC1=O (stereo not shown) [compound 6, 3-(2,4-Dioxocyclohexyl)propyl 2-(methylamino)benzoate] | – | 300.7 | do not react | lack of reactivity | gave covalent adducts | approximately equal labeling | – | – | – | – | – | – | – | – |
| CC1(C)CC(=O)CC(=O)C1 [dimedone, 5,5-dimethyl-1,3-cyclohexanedione] | – | 137.3 | – | lack of reactivity | – | – | 5.15 | fails to react | does not react | does not react | reacts | fails to react | no reaction occurs | condenses with benzylamine to form an imine |
| COc1ccc2cc(NC(=O)OCCCC3CCC(=O)CC3=O)c(=O)oc2c1 (stereo not shown) [compound 7, 3-(2,4-Dioxocyclohexyl)propyl 7-methoxy-2-oxo-2H-chromen-3-ylcarbamate] | – | 384.5 | do not react | lack of reactivity | gave covalent adducts | approximately equal labeling | – | – | – | – | – | – | – | – |
